Earlier results on 1 compound are cited in patent US5216015A, “Compounds having hypocholesterolemic properties” (priority 1991, dated 1993).

The conditions of series [1]: Schroepfer, et al., Proc. Natl. Acad. Sci., USA 81, 6861-6865 (1984); cited from earlier work.
In another series the test system is sterol synthesis. The following applies: Schroepfer, et al., J. Biol. Chem. 252 (24), 8975 (1977); cited from earlier work.

Take `CC(C)CCC[C@@H](C)[C@H]1CC(=O)C2=C3CC[C@H]4C[C@@H](O)CC[C@]4(C)[C@H]3CC[C@@]21C` [5α-cholest-8(14)-en-3β-ol-15-one]: the hypocholesterolemic activity result in series [1] was “significant hypocholesterolemic acitivity”. The “inhibition of sterol synthesis” value with sterol synthesis was “potent inhibitors of sterol synthesis”.
